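Cells were grown in 96-well plates and exposed to each compound for 48 hours at five concentrations; endpoints were interpolated linearly between bracketing concentrations, or set to the highest concentration if not reached. The concentration for 50% growth inhibition is given as GI50.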 Active and inactive are the calls of the source. Cut-off read from the data, not from the text of the source: active = GI50 up to about 1.1 µM and inactive = higher.
How the values were obtained:
Assay in all cases: NCI tumour cell line growth inhibition, 48 h
[1] = system: SK-MEL-2
[2] = system: RXF 393
[3] = system: DU-145
[4] = system: HCC 2998
[5] = system: TK-10
[6] = system: HL-60
[7] = system: HCT-15
[8] = system: SR
[9] = system: T47D
[10] = system: OVCAR-8
[11] = system: U-251
[12] = system: SF-295
[13] = system: Hs-578T
[14] = system: COLO 205
[15] = system: SK-MEL-5
[16] = system: NCI-H522
[17] = system: LOX IMVI
[18] = system: MOLT-4
[19] = system: SF-268
[20] = system: PC-3

**Q.** How did the GI50 [1] turn out when `C[C@@H]1C[C@@H](O)[C@]2(O)O[C@@H]3C[C@@]4(C=O)[C@@H](CC[C@@H]5[C@@H]4CC[C@]4(C)[C@@H](C6=CC(=O)OC6)CC[C@]54O)C[C@H]3O[C@@H]2O1` [CALACTIN] was run?
**A.** The GI50 was 0.0114 µM (active).

**Q.** What about the GI50 [2] of the same compound?
**A.** Its GI50 is 0.0194 µM (active).

**Q.** And the GI50 [3]?
**A.** The GI50 was 0.0171 µM (active).

**Q.** And the GI50 [4]?
**A.** The GI50 was 0.161 µM (active).

**Q.** And the GI50 [5]?
**A.** Its GI50 is 0.00906 µM (active).

**Q.** And the GI50 [6]?
**A.** Its GI50 is 0.0129 µM (active).

**Q.** What about the GI50 [7] of the same compound?
**A.** The GI50 was 0.0162 µM.

**Q.** What about the GI50 [8] of the same compound?
**A.** Its GI50 is 0.00275 µM (active).

**Q.** What about the GI50 [9] of the same compound?
**A.** Its GI50 is 0.0469 µM (active).

**Q.** And the GI50 [10]?
**A.** The GI50 was 0.0108 µM (active).

**Q.** And the GI50 [11]?
**A.** The GI50 was 0.019 µM (active).

**Q.** And the GI50 [12]?
**A.** The GI50 was 0.0133 µM (active).

**Q.** What about the GI50 [13] of the same compound?
**A.** Its GI50 is 0.0202 µM (active).

**Q.** And the GI50 [14]?
**A.** Its GI50 is 0.0221 µM (active).

**Q.** And the GI50 [15]?
**A.** The GI50 was 0.0101 µM (active).

**Q.** What about the GI50 [16] of the same compound?
**A.** Its GI50 is 0.00138 µM (active).

**Q.** And the GI50 [17]?
**A.** Its GI50 is 0.0148 µM (active).

**Q.** And the GI50 [18]?
**A.** Its GI50 is 0.00188 µM (active).

**Q.** What about the GI50 [19] of the same compound?
**A.** Its GI50 is 0.00231 µM (active).

**Q.** And the GI50 [20]?
**A.** Its GI50 is 0.0403 µM (active).

**Q.** What does the source list for `CC[C@@]1(C[C@H]2C[C@@]3(C(=O)OC)c4[nH]c5ccccc5c4CCN3C2=S)COC2(CCCCC2)O1`?
**A.** GI50 [1]: > 100 µM (inactive); GI50 [2]: 59.6 µM (inactive); GI50 [3]: > 100 µM (inactive); GI50 [4]: 15.2 µM (inactive); GI50 [5]: 11.2 µM (inactive); GI50 [6]: 4.06 µM (inactive); GI50 [7]: 5.57 µM; GI50 [8]: 4.44 µM (inactive); GI50 [9]: 26.2 µM (inactive); GI50 [10]: > 100 µM (inactive); GI50 [11]: 3.75 µM (inactive); GI50 [12]: 22 µM (inactive); GI50 [13]: 10.6 µM (inactive); GI50 [14]: 7.41 µM (inactive); GI50 [15]: 3.12 µM (inactive); GI50 [16]: 59.2 µM (inactive); GI50 [17]: 78 µM (inactive); GI50 [18]: 6.15 µM (inactive); GI50 [19]: 62.5 µM (inactive); GI50 [20]: 4.97 µM (inactive)

**Q.** Which GI50 [1] does the source give for `OC1CCCCCCCCCCC1[S+]1CCCC1.O[B-](F)(F)F` (stereo not given) here?
**A.** The GI50 was > 100 µM (inactive).

**Q.** What about the GI50 [2] of the same compound?
**A.** Its GI50 is > 100 µM (inactive).

**Q.** What about the GI50 [3] of the same compound?
**A.** The GI50 was > 100 µM (inactive).

**Q.** What about the GI50 [4] of the same compound?
**A.** The GI50 was > 100 µM (inactive).

**Q.** What about the GI50 [5] of the same compound?
**A.** Its GI50 is > 100 µM (inactive).

**Q.** What about the GI50 [6] of the same compound?
**A.** Its GI50 is > 100 µM (inactive).

**Q.** And the GI50 [7]?
**A.** Its GI50 is over 100 µM.

**Q.** What about the GI50 [8] of the same compound?
**A.** Its GI50 is > 100 µM (inactive).

**Q.** And the GI50 [9]?
**A.** Its GI50 is > 100 µM (inactive).

**Q.** What about the GI50 [10] of the same compound?
**A.** Its GI50 is > 100 µM (inactive).

**Q.** And the GI50 [11]?
**A.** The GI50 was > 100 µM (inactive).

**Q.** And the GI50 [12]?
**A.** The GI50 was > 100 µM (inactive).

**Q.** What about the GI50 [13] of the same compound?
**A.** The GI50 was > 100 µM (inactive).

**Q.** And the GI50 [14]?
**A.** Its GI50 is 62.7 µM (inactive).

**Q.** And the GI50 [15]?
**A.** Its GI50 is 27.7 µM (inactive).

**Q.** What about the GI50 [16] of the same compound?
**A.** Its GI50 is > 100 µM (inactive).

**Q.** And the GI50 [17]?
**A.** Its GI50 is > 100 µM (inactive).

**Q.** And the GI50 [18]?
**A.** Its GI50 is > 100 µM (inactive).

**Q.** And the GI50 [19]?
**A.** The GI50 was > 100 µM (inactive).

**Q.** What about the GI50 [20] of the same compound?
**A.** The GI50 was 56.8 µM (inactive).

**Q.** What does the source list for `COC(=O)Cc1ccc2c(cnn2-c2ccccc2)c1OC`?
**A.** GI50 [1]: > 10 µM (inactive); GI50 [2]: > 10 µM (inactive); GI50 [3]: > 10 µM (inactive); GI50 [4]: > 10 µM (inactive); GI50 [5]: > 10 µM (inactive); GI50 [6]: > 10 µM (inactive); GI50 [7]: > 10 µM; GI50 [8]: > 10 µM (inactive); GI50 [9]: > 10 µM (inactive); GI50 [10]: > 10 µM (inactive); GI50 [11]: > 10 µM (inactive); GI50 [12]: > 10 µM (inactive); GI50 [13]: > 10 µM (inactive); GI50 [14]: > 10 µM (inactive); GI50 [15]: > 10 µM (inactive); GI50 [16]: > 10 µM (inactive); GI50 [17]: > 10 µM (inactive); GI50 [18]: > 10 µM (inactive); GI50 [19]: > 10 µM (inactive); GI50 [20]: > 10 µM (inactive)

**Q.** For `O=C1[C@H](c2ccccc2)C2c3ccccc3CCN12` (stereo not given in full), which GI50 [1] is on record?
**A.** Its GI50 is > 10 µM (inactive).

**Q.** What about the GI50 [2] of the same compound?
**A.** Its GI50 is > 10 µM (inactive).

**Q.** What about the GI50 [3] of the same compound?
**A.** Its GI50 is > 10 µM (inactive).

**Q.** And the GI50 [4]?
**A.** Its GI50 is > 10 µM (inactive).

**Q.** What about the GI50 [5] of the same compound?
**A.** The GI50 was > 10 µM (inactive).

**Q.** What about the GI50 [6] of the same compound?
**A.** The GI50 was > 10 µM (inactive).

**Q.** What about the GI50 [7] of the same compound?
**A.** The GI50 was over 10 µM.

**Q.** What about the GI50 [8] of the same compound?
**A.** The GI50 was > 10 µM (inactive).

**Q.** And the GI50 [9]?
**A.** The GI50 was > 10 µM (inactive).

**Q.** And the GI50 [10]?
**A.** The GI50 was > 10 µM (inactive).

**Q.** What about the GI50 [11] of the same compound?
**A.** The GI50 was > 10 µM (inactive).

**Q.** And the GI50 [12]?
**A.** The GI50 was > 10 µM (inactive).

**Q.** And the GI50 [13]?
**A.** The GI50 was > 10 µM (inactive).

**Q.** And the GI50 [14]?
**A.** Its GI50 is > 10 µM (inactive).

**Q.** And the GI50 [15]?
**A.** Its GI50 is > 10 µM (inactive).

**Q.** What about the GI50 [16] of the same compound?
**A.** Its GI50 is > 10 µM (inactive).

**Q.** What about the GI50 [17] of the same compound?
**A.** The GI50 was > 10 µM (inactive).

**Q.** And the GI50 [18]?
**A.** The GI50 was > 10 µM (inactive).

**Q.** And the GI50 [19]?
**A.** Its GI50 is > 10 µM (inactive).

**Q.** What about the GI50 [20] of the same compound?
**A.** Its GI50 is > 10 µM (inactive).
